Test results: patent US20240409934A1, “FOXO1-TARGETED THERAPY FOR THE TREATMENT OF CANCER” (BOARD OF REGENTS, THE UNIVERSITY OF TEXAS SYSTEM, priority 2021, published 2024)

Assays:
Format in all cases: cell-based
[1] = test system: HCT116; assay: Colony formation assay (crystal violet); conditions: treated five days
[2] = test system: LN18; assay: Colony formation assay (crystal violet); conditions: treated five days
Procedure: (§1) Cell culture and drug treatments. Cell lines were obtained from ATCC (American Type Culture Collection, Manassas, VA) and grown under standard conditions (5% CO2, 10% FBS (fetal bovine serum), with 5% antifungal/antibacterial). Cell lines were tested for Mycoplasma using the MycoAlert Mycoplasma Detection Kit (Lonza, Basel Switzerland, cat: LT07-218); all experiments were done with mycoplasma negative cells. U87MG cells were propagated in MEM (Minimal Essential Medium). BT549 and DBTRG cells were propagated in RPMI (Roswell Park Memorial Institute 1640 Medium). LN18, U118MG, A172 and LN229 cells were propagated in DMEM (Dulbecco's Modified Eagle Medium). Neurosphere/cancer stem cell cultures for U87MG and BT549 cell lines were plated with 40,000 cells per mL in 3D Tumorsphere Medium XF (Sigma cat: C-28070, Burlington, MA). BT549 cancer stem cell cultures were supplemented with 1XB27 XenoFree CTS (Gibco/Thermo Fisher Waltham, MA, USA). AS1842856 was purchased from Calbiochem (Danvers, MA) and utilized at 200 nM, 500 nM and 1 μM final concentrations as indicated. AS1708727 was purchased from MedChem Express (Monmouth Junction, NJ) and was used at 0.5 μM, 1.0 µM and 2.0 μM concentrations. 5-aza-2′-deoxycytidine (5-AZA) was purchased from Millipore/Sigma (Burlington, MA) and utilized at a final concentration of 3 μM. Cells were plated at a density of 2,700 cells per mL and were treated five days with indicated drug. Treatments were investigated in triplicate (in numerous independent experiments) and stained with crystal violet. Plates were aspirated of media then each well was washed with 1.0 mL of 1x phosphate buffered saline (PBS) once before being stained with 1.0 mL of crystal violet stain (0.5% crystal violet in buffered formalin) and incubated for 15 minutes. The stain was aspirated, and wells were washed 3 times with 0.5 mL of 1x PBS. After collections were completed, crystal violet-stained plates were solubilized using 0.5 mL on each well of 10% acetic acid and placed on shaker for 1 hour. Solubilized samples were transferred to 96 well plates and quantified on a spectrophotometer at 590 nm. Quantified plates were analyzed with a Tukey test. Error bars were added using the standard deviation. Cells were plated at 2,700 cells per mL and were treated five days with the indicated drug. Treatments were investigated in triplicate (in numerous independent experiments) and stained with crystal violet. Plates were aspirated of media, then each well was washed with 1.0 mL of 1× phosphate-buffered saline (PBS) once before being stained with 1.0 mL of crystal violet stain (0.5% crystal violet in buffered formalin) and incubated for 15 minutes. The stain was aspirated, and cells were washed three times with 0.5 mL of 1×PBS. After collections were completed, crystal violet-stained plates were solubilized using 0.5 mL on each well of 10% acetic acid and placed on a shaker for 1 hour. Solubilized samples were transferred to 96 well plates and quantified on a spectrophotometer at 590 nm using iMark Microplate Absorbance Reader (Bio-Rad, Hercules, CA). Quantified plates were analyzed with a Tukey Test. Error bars were added using the standard deviation.

[3] = test system: LN229; assay: Colony formation assay (crystal violet); conditions: treated five days
Procedure: as §1

[4] = test system: U87MG cells; assay: Colony formation assay (crystal violet)
Procedure: as §1

[5] = test system: DBTRG; assay: Colony formation assay (crystal violet); conditions: treated five days
Procedure: as §1

[6] = test system: SW480; assay: Colony formation assay (crystal violet); conditions: treated five days
Procedure: [The procedure below names another cell line; the source lists this cell line under the same test.] as §1

[7] = test system: A172; assay: Colony formation assay (crystal violet); conditions: treated five days
Procedure: as §1

[8] = test system: BT549; assay: Colony formation assay (crystal violet); conditions: treated five days
Procedure: as §1

[9] = test system: LN229; assay: Western blot for cleaved caspase 3
Procedure: (§2) Total protein was obtained from indicated cells by rinsing cells with 1×PBS (phosphate buffered saline) followed by directed lysis in 2× sample buffer (125 mM Tris-HCL at pH 6.8, 2% sodium dodecyl sulfate (SDS), 10% 2-mercaptoethanol, 20% glycerol, 0.05% bromophenol blue, 8 M urea); 2× sample buffer was added to each well and cells scraped with a cell scraper. The lysate was collected from each well, placed into a 1.5 mL microcentrifuge tube and heated for 10 minutes at 95° C. in a dry-bath heat block. Protein lysates were separated by sodium dodecyl sulfate-polyacrylamide gel electrophoresis (SDS-PAGE) at 100V for 1 hour. […] Data was analyzed with NIH Image J. Antibodies were obtained from Cell Signaling Technologies (Danvers, MA): Cleaved Caspase 3 antibody (cat: 94530). […]

[10] = test system: BT549; assay: Western blot for cleaved caspase 3
Procedure: as §2

## CCn1cc(C(=O)O)c(=O)c2c(N)c(F)c(NC3CCCCC3)cc21 [AS1842856, 5-Amino-7-(cyclohexylamino)-1-ethyl-6-fluoro-4-oxo-1,4-dihydroquinoline-3-carboxylic acid]
[1]
  colony formation: Significantly reduced colony formation
[2]
  colony formation: fewer cells with 200 nM drug treatment with further reductions using 500 nM and 1 μM drug
[3]
  colony formation: fewer cells with 200 nM drug treatment with further reductions using 500 nM and 1 μM drug
[4]
  colony number: colony number was not significantly impacted
[5]
  colony formation: fewer cells with 200 nM drug treatment with further reductions using 500 nM and 1 μM drug
[6]
  colony formation: Significantly reduced colony formation
[7]
  colony formation: fewer cells with 200 nM drug treatment with further reductions using 500 nM and 1 μM drug
[8]
  colony formation: fewer cells with 200 nM drug treatment with further reductions using 500 nM and 1 μM drug
[9]
  caspase 3 cleavage: positive for caspase 3 cleavage
[10]
  caspase 3 cleavage: positive for caspase 3 cleavage
